# Data as given in patent US6541463B1, “Inhibitors of type 5 and type 3 17β-hydroxysteroid dehydrogenase and methods for their use” (Endorecherche, Inc., priority 1998, dated 2003).
# What was measured:
# [1] = system: Shionogi mouse mammary carcinoma cells; assay: Androgenic activity: stimulation of proliferation of Shionogi cells; type: cell-based
# Method in brief: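 Values are the percent stimulation of cell number, measured by Coulter counter, after 10–12 days of exposure to 10^−7 M or 10^−6 M compound. Androgen-sensitive Shionogi cells were seeded at 20 000 cells/well in triplicate in dextran-charcoal-treated FCS medium, refreshed every 3–4 days.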
# progesterone receptor = assay: Progesterone receptor assay: inhibition of [3H]R5020 binding, uterine cytosol; parameters: species or system rat
SMILES,"Androgenic Activity Shionogi, Basal E^−6 ([1]; Table 4′)","Androgenic Activity Shionogi, Basal E^−7 ([1]; Table 4′)",% Inhibition Progesterone Receptor E^−6 (progesterone receptor; Table 4′),% Inhibition Progesterone Receptor E^−8 (progesterone receptor; Table 4′),"Androgenic Activity Shionogi, Basal E^−6 [1]","Androgenic Activity Shionogi, Basal E^−7 [1]",% Inhibition Progesterone Receptor E^−6 (progesterone receptor),% Inhibition Progesterone Receptor E^−8 (progesterone receptor)
"CCOc1ccc2c(c1)CCC1C2CC[C@@]2(C)C1CC[C@@]21CCC(C)(C)C(=O)O1 (stereo partly drawn) [EM-1369, 3-Ethoxy-1,3,5(10)-estratrien-17(R)-spiro-2′-(5′,5′-dimethyl-6′-oxo)-tetrahydropyran]",0%,0%,3%,1%,,,,
CC1(C)CCC2(CCC3C4CCc5c(cc(Cl)c(O)c5Cl)C4CCC32C)OC1=O (centres unmarked) [EM-1391-CS],−13%,0%,1%,1%,,,,
COCCOc1cc2c(cc1C#N)C1CC[C@@]3(C)C(CC[C@@]34CCC(C)(C)C(=O)O4)C1CC2 (some centres unmarked) [EM-1396],−15%,0%,0%,0%,,,,
"CSCCOc1ccc2c(c1)CCC1C2CCC2(C)C1CCC21CCCC(=O)O1 [CS-242, 3-Methylthioethyloxy-1,3,5(10)-estratrien-17(R)-spiro-2′-(6′-oxo) Tetrahydropyran]",−32%,0%,0%,0%,,,,
CCC[C@]1(F)CC2C3C=CC4=CC(=O)CC[C@]4(C)C3CC[C@]2(C)C1=O (some centres unmarked) [EM-1183],,,,,−17,0,45%,9%
"CC1CCC2(CCC3C4CCc5cc(O)c([N+](=O)[O-])cc5C4CCC32C)OC1=O [EM-1131, 2-Nitro-1,3,5(10)-estratrien-3-ol-17(R)-spiro-2′-(5′-methyl-6′-oxo)tetrahydropyran]",0%,0%,10%,2%,,,,
COc1ccc2c(c1)C(=O)CC1C3CCC4(CCC(C)(C)C(=O)O4)C3(C)CCC21O (centres unmarked) [EM-1386],−17%,5%,0%,0%,,,,
CC1(C)CCC2(CCC3C4CCc5ccccc5C4CCC32C)OC1=O (centres unmarked) [CS-224],0%,17%,5%,2%,,,,
